Patent US5070210A, “Novel ketenimines as intermediates for insecticides” (ICI Americas Inc., priority 1990, dated 1991)

Experiments:
Type in all cases: in vivo
[1] = test system: Housefly [Musca domestica]; assay: Housefly insecticidal test; details: μg per 25 female flies; mortality after 48 hours
Method in brief: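 LC50 (μg compound per 25 female flies) derives from dosage-mortality curves of 48 h kill. Flies, females 1-2 days old, were held 25 per cage over a dish coated with dried acetone deposit, starting at 100 μg per cage and descending.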

[2] = test system: Tobacco Budworm [Heliothis virescens (Fabricius)] larvae; assay: Tobacco budworm contact test; details: second-instar larvae, percent in solution, 5 days
Protocol: The compounds in Tables 1 and 2 above were tested for insecticidal activity using the following testing procedures. LC50 values, based on the results of these tests and calculated according to dosage-mortality curves, are expressed in Table 3.
Tobacco Budworm [Heliothis virescens (Fabricius)]:
(a) Contact: Test compounds were diluted in a 50-50 acetone-water solution. Cotton (Gossypium sp.) cotyledons were immersed in the test solutions for 2-3 seconds and placed on a wire screen to dry. The dried leaves were placed in petri dishes containing a moistened piece of filter paper and infested with 5 second-instar tobacco budworm larvae. The dishes were placed in a high humidity chamber for 5 days, and percent mortality of the larvae recorded. Test concentrations ranged from 0.1% downward. The LC-50 values are expressed below in Table 3 under the heading "TBW-C" in terms of percent of the test compound in the solution.

[3] = test system: Tobacco Budworm [Heliothis virescens (Fabricius)] eggs; assay: Tobacco budworm egg test; details: 2-day old eggs, percent in solution
Method in brief: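 LC50 is given as percent compound in the dipping solution, fitted from dosage-mortality curves. Two-day-old eggs on paper towel were dipped in acetone solutions (top concentration 0.1%), kept at 78° F on rearing medium, and scored after control hatch and larval feeding.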

[4] = test system: Cabbage Looper [Trichoplusia ni (Hubner)]; assay: Cabbage looper insecticidal test; details: second-instar larvae, percent in solution; 3-5 days
Method in brief: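 LC50, as percent test compound in solution, derived from dosage-mortality curves; concentrations started at 0.1% and went lower. Five second-instar larvae per dish fed on acetone-water-dipped, dried squash cotyledons in a humid chamber. Deaths recorded 3-5 days post-infestation.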

[5] = test system: Maize weevil [Sitophilus Zeamais (Motschulsky)]; assay: Maize weevil insecticidal test; details: adult weevils, percent in solution; 48 hours
Method in brief: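 LC50, in percent of compound in solution, was derived from dosage-mortality curves after 48 h at about 25 °C. Ten adult weevils per container fed on four corn seeds briefly immersed in acetone:water (50:50) solutions of up to 0.01% and dried.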

[6] = test system: Aster Leafhopper [Macrosteles fascifrens (Stal)]; assay: Aster leafhopper insecticidal test; details: adults/nymphs, percent in solution; 48 hours
Method in brief: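 LC50 values, given as percent of test compound in the dip solution, were derived from dosage-mortality curves over concentrations from 0.05% downward. Mortality was counted 48 hours after ten leafhopper adults/nymphs were enclosed on treated seedlings. The seedlings were oats, about 10 cm tall, briefly dipped in 50-50 acetone-water.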

Compound | LC50, HF [1] | LC50, TBW, C (TBW-C) [2] | LC50, TBW, E (TBW-E) [3] | LC50, CL [4] | LC50, MW [5] | LC50, LH [6]
Cc1cc(Cl)ccc1N=C(OCc1cccc(Oc2ccccc2)c1)C(C)C [Compound 96] | 35 µg | 0.0025% | 0.025% | 0.003% |  | 
C=C(C)C(=Nc1ccc(C(F)(F)F)cc1)OCc1ccc(F)c(Oc2ccc(Cl)cc2)c1 [Compound 432] | < 100 µg | < 0.1% | 0.032% | 0.0012% | > 0.01% | 
CC(C)C(=Nc1ccc2c(c1)OC(C)(C)O2)OCc1cccc(Oc2ccc(F)cc2)c1 [Compound 219] | 50 µg | 0.004% | 0.027% | 0.00025% | > 0.01% | 
CC(C)C(=Nc1cccc(C(F)(F)F)c1)OCc1cccc(Oc2ccc(F)cc2)c1 [Compound 202] | 18 µg | 0.0007% | > 0.1% | 0.00024% | > 0.01% | 0.0003%
CC1(C(=Nc2ccc(Cl)cc2)OCc2cccc(Oc3ccccc3)c2)CC1 [Compound 5] | 21 µg | 0.008% | 0.05% | 0.005% | > 0.01% | > 0.05%
CC(C)C(=Nc1ccc(F)c(Cl)c1F)OCc1cccc(Oc2ccc(F)cc2)n1 [Compound 521] | 7.5 µg | 0.0005% | > 0.1% | 0.00005% | 0.01% | 0.05%
CCC(C)C(=Nc1ccc(F)c(Cl)c1)OCc1cccc(Oc2ccc(F)cc2)c1 (centres unmarked) [Compound 210] | 35 µg | 0.0015% | 0.045% | 0.00028% | > 0.01% | 
CC(C)C(=Nc1ccc(F)c(Br)c1)OCc1cccc(Oc2ccc(F)cc2)c1 [Compound 253] | 10 µg | 0.0005% | > 0.1% | 0.00013% | > 0.01% | 0.003%
CC(C)C(=Nc1ccc(Cl)c(Cl)c1)OCc1cccc(Oc2ccc(Cl)cc2)n1 [Compound 523] | 22 µg | 0.0002% | > 0.1% | 0.00015% | > 0.01% | > 0.05%
CC(C)C(=Nc1ccc(Br)cc1)OCc1cccc(Oc2ccc(F)cc2)c1 [Compound 226] | 16 µg | 0.001% | 0.1% | 0.0005% | 0.009% | 0.002%
CC(=O)c1ccc(N=C(OCc2cccc(Oc3ccccc3)c2)C(C)C)cc1 [Compound 147] | 10 µg | 0.0075% | > 0.1% | 0.01% |  | 
Cc1ccc(N=C(OCc2cccc(Oc3ccccc3)c2)C(C)C)cc1F [Compound 75] | 5 µg | 0.0075% | 0.01% | 0.0025% |  | 0.0008%
CC(C)C(=Nc1c(F)c(F)c(F)c(F)c1F)OCc1cccc(Oc2ccccc2)c1 [Compound 51] | 25 µg | 0.0025% | 0.067% | 0.001% |  | 0.001%
Fc1ccc(N=C(OCc2cccc(Oc3ccccc3)c2)C(Cl)Cl)cc1 [Compound 44] | 3 µg | < 0.1% | 0.06% |  |  | 
COc1ccc(N=C(OCc2cccc(Oc3ccccc3)c2)C(C)C)cc1Cl [Compound 95] | 10 µg | 0.004% | 0.025% | 0.0025% |  | 
COc1ccccc1N=C(OCc1cccc(Oc2ccccc2)c1)C(C)C [Compound 145] | > 100 µg | 0.05% | > 0.1% | 0.05% |  | > 0.05%

Compound | LC50, HF [1] | LC50, TBW, C (TBW-C) [2] | LC50, TBW, E (TBW-E) [3] | LC50, CL [4] | LC50, MW [5] | LC50, LH [6]
CC(C)(C)C(=Nc1ccc(F)c(Cl)c1)OCc1cccc(Oc2ccc(F)cc2)c1 [Compound 204] | > 100 µg | 0.004% | > 0.1% | 0.0023% | > 0.01% | 
Cc1c(F)cccc1N=C(OCc1cccc(Oc2ccccc2)c1)C(C)C [Compound 73] | 25 µg | 0.005% | 0.025% | 0.004% |  | 
Cc1ccc(F)cc1N=C(OCc1cccc(Oc2ccccc2)c1)C(C)C [Compound 74] | 25 µg | 0.0025% | 0.025% | 0.005% |  | 
CC(C)(C)c1ccc(N=C(OCc2cccc(Oc3ccccc3)c2)C(Cl)Cl)cc1 [Compound 140] | > 100 µg | > 0.1% | > 0.1% | < 0.1% |  | 
CC(C)C(=Nc1cc(F)cc(F)c1)OCc1cccc(Oc2ccc(F)cc2)c1 [Compound 199] | 8 µg | 0.003% | > 0.1% | 0.0006% | > 0.01% | 
CC(C)C(=Nc1ccc(C(F)(F)F)cc1)OCc1cccc(Cc2ccccc2)c1 [Compound 535] | 41 µg |  | > 0.1% | > 0.1% | > 0.01% | > 0.05%
CC(C)C(=Nc1cccc(C(F)(F)F)c1)OCc1ccc(F)c(Oc2ccc(Cl)cc2)c1 [Compound 266] | 10 µg | 0.0007% | 0.06% | 0.00016% |  | 
CCc1ccc(N=C(OCc2ccc(F)c(Oc3ccc(F)cc3)c2)C(C)C)cc1 [Compound 361] | < 100 µg |  | 0.04% | 0.001% | > 0.01% | < 0.05%
CSc1ccc(N=C(OCc2ccc(F)c(Oc3ccccc3)c2)C(C)C)cc1 [Compound 353] | < 100 µg |  | > 0.1% | > 0.1% | > 0.01% | > 0.05%
ClC(Cl)C(=Nc1ccccc1)OCc1cccc(Oc2ccccc2)c1 [Compound 41] | 4.5 µg | 0.0035% | 0.04% | 0.015% |  | 
Cc1cccc(N=C(OCc2cccc(Oc3ccc(Cl)cc3)n2)C(C)C)c1 [Compound 545] | < 100 µg |  | > 0.1% | > 0.1% | > 0.01% | > 0.05%
COc1ccc(N=C(OCc2cccc(Oc3ccccc3)c2)C(C)C)c(OC)c1 [Compound 146] | 40 µg | 0.025% | > 0.1% | 0.017% |  | 
CCC(=Nc1ccc(F)c(F)c1)OCc1coc(Cc2ccccc2)c1 [Compound 524] | 5.2 µg |  | > 0.1% | > 0.1% | > 0.01% | > 0.05%
CCc1ccc(N=C(OCc2ccc(F)c(Oc3ccccc3)c2)C(C)C)cc1 [Compound 360] | < 100 µg |  | > 0.1% | 0.006% | > 0.01% | < 0.05%
Cc1c(COC(=Nc2ccc(C(C)(C)C)cc2)C(C)C)cccc1-c1ccccc1 [Compound 536] | > 100 µg |  | > 0.1% | < 0.1% | > 0.01% | > 0.05%
CC(C)C(=Nc1ccc(OC(F)(F)F)cc1)OCc1cccc(Cc2ccccc2)c1 [Compound 538] | 75 µg |  | > 0.1% | > 0.1% | > 0.01% | > 0.05%
